Measured values reported in patent US7850994B1, “Xerogel films for the controlled release of pharmaceutically active molecules” (The Trustees of the University of Pennsylvania, priority 2005, dated 2010).
Where “and” joins values, the source holds several entries; their conditions need not be identical. Identical values can stand only once.

Assays:
[1] = Stability / precipitation of vancomycin in sols; format: physicochemical; conditions: water-free sol prepared as described by Böttcher et al
Source text: Vancomycin is a water-soluble drug. Sols with nominal vancomycin (Vancomycin-HCL, NovaPlus) concentrations of 5, 10, and 20% by weight were made by adding corresponding amounts of vancomycin dissolved in DI water to the sol. Although sols with various vancomycin concentrations were stable for several days, only freshly prepared mixtures were used for the application of the coatings.
Modification of the process of sol preparation was required to avoid the precipitation. It was achieved by adding water at the TEOS hydrolysis step. […] The sols with vancomycin concentrations varying from 3 to 30% by weight were stable over several days. The sols of modified compositions were successfully used for depositing vancomycin-loaded thin xerogel films to a Ti alloy substrate.

[2] = tested on: Staphylococcus aureus; conditions: against Staphylococcus aureus; cited from earlier work

CN[C@H](CC(C)C)C(=O)N[C@H]1C(=O)N[C@@H](CC(N)=O)C(=O)N[C@H]2C(=O)N[C@H]3C(=O)N[C@H](C(=O)N[C@H](C(=O)O)c4cc(O)cc(O)c4-c4cc3ccc4O)[C@H](O)c3ccc(c(Cl)c3)Oc3cc2cc(c3O[C@@H]2O[C@H](CO)[C@@H](O)[C@H](O)[C@H]2O[C@H]2C[C@](C)(N)[C@H](O)[C@H](C)O2)Oc2ccc(cc2Cl)[C@H]1O [vancomycin]
precipitation on adding a water solution of vancomycin to a sol [1]: immediate precipitation of the drug in the sol | Minimal Inhibitory Concentration (MIC) [2]: 1.5 to 3 µg/mL and 1.5 to 3.12 µg/mL
